Assay results published in ChEMBL document CHEMBL1149863, “Phenolic glycosides from berries of Pimenta dioica” (J Nat Prod, 2008).

Experiment: DPPH radical scavenging activity after 180 mins
Assay type: functional

Structure (SMILES) | IC50 [µM]
O=C(O)c1cc(O)c(O)c(O)c1 [GALLIC ACID] | 8
COc1cc(/C=C/C(=O)O)cc(OC)c1O [SINAPINATE] | 25.7
C=CCc1ccc(O)c(OC)c1 [EUGENOL] | 27.5

Second part, the molecule after the results:

IC50 [µM] | Structure (SMILES)
11.2 | O=C(O)C[C@H]1CCC(=O)[C@@H]1C/C=C\CCO[C@@H]1O[C@H](COC(=O)c2cc(O)c(O)c(O)c2)[C@@H](O)[C@H](O)[C@H]1O
15 | C=CCc1cc(OC)c(O)c(O[C@@H]2O[C@H](COC(=O)/C=C/c3cc(OC)c(O)c(OC)c3)[C@@H](O)[C@H](O)[C@H]2O)c1
10.5 | CC1=CC[C@@H](C(C)(C)O[C@@H]2O[C@H](CO[C@@H]3O[C@@H](CO)[C@H](O)[C@H]3OC(=O)c3cc(O)c(O)c(O)c3)[C@@H](O)[C@H](O)[C@H]2O)CC1
11.6 | CC1=CC[C@H](C(C)(C)O[C@@H]2O[C@H](CO[C@@H]3O[C@@H](CO)[C@H](O)[C@H]3OC(=O)c3cc(O)c(O)c(O)c3)[C@@H](O)[C@H](O)[C@H]2O)CC1
